According to PMC4249827, “A Novel CMKLR1 Small Molecule Antagonist Suppresses CNS Autoimmune Inflammatory Disease” (PLoS ONE, 2014):
Counter-ions that a name gives are not always drawn.

Columns and labels:
[1] = literature statement; cited from earlier work
huCMKLR1 [2] = biological target: T1, huCMKLR1 (Homo sapiens, UniProt Q99788); assay: Transwell chemotaxis of huCMKLR1/L1.2 transfectants to chemerin
T1 sequence (Q99788 1-373): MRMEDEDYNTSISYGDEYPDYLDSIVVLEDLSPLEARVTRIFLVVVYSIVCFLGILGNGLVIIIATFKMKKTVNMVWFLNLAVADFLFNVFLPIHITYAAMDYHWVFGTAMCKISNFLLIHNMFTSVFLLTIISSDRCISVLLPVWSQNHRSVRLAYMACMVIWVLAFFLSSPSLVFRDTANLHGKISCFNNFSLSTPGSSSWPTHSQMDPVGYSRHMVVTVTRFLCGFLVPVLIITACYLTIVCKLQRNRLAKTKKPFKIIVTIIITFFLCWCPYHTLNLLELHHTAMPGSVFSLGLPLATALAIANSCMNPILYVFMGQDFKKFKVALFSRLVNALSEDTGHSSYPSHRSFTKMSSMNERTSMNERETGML

mCMKLR1 = biological target: T2, mCMKLR1 (Mus musculus, UniProt P97468); assay: Transwell chemotaxis of mCMKLR1/L1.2 transfectants to chemerin
T2 sequence (P97468 1-371): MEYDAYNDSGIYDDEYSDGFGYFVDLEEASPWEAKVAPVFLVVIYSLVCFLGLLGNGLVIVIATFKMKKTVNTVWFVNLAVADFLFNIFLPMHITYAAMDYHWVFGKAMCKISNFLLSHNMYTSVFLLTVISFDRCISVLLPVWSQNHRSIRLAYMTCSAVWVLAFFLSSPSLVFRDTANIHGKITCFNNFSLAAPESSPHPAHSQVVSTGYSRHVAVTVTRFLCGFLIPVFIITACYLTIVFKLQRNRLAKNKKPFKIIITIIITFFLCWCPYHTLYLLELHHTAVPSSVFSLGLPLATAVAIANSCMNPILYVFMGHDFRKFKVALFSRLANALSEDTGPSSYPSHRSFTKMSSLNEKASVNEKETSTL

huCMKLR1 [3] = biological target: T1, huCMKLR1; assay: β-arrestin2 (β-ARR2) enzymatic complementation assay, CMKLR1/CHO cells; type: cell-based; parameters: host or cells: CHO; details: for IC50: mean±SEM, n = 3-14 independent experiments, read-out: IC50 (µM), β-arrestin, huCMKLR1
From the text: The engagement of a chemoattractant receptor by its cognate ligand stimulates the recruitment of β-arrestin to the carboxyl-terminus of the receptor, an event that results in receptor internalization and termination of G protein-mediated signaling. […] To test this, we used an enzymatic complementation assay (the β-ARR2 assay), whereby the complementary fragments from the β-gal active site are fused to the carboxyl-terminus of CMKLR1 and β-arrestin2. The special association of these molecules leads to enzyme activity, which is detected by a chemiluminescent substrate.

[4] = test system: Choline acetyltransferase; details: cited from earlier work

SMILES	bound by serum proteins [1] [%]	IC50 (huCMKLR1 [2]) [µM]	IC50 (mCMKLR1) [µM]	IC50 (huCMKLR1 [3]) [µM]	inhibitory activity in the in vitro assays (huCMKLR1 [3]; β-ARR2 and transwell migration assays)	fold less potent than α-NETA in inhibiting ChAT enzyme activity [4] [fold]	fold less potent than α-NETA (huCMKLR1 [3]; chemerin-stimulated β-ARR2 association with CMKLR1 or CMKLR1+ cell migration)
COC(=O)/C=C/C(=O)O [monomethyl fumarate]	30						
c1ccc2ccccc2c1 [naphthalene, reference compound]		> 100	> 100	> 10	no inhibitory activity		
CN(C)CCC(=O)c1cccc2ccccc12 [α-NEDA, 2-(α-naphthoyl)ethyldimethylamine]		77 ± 23	78 ± 22	7.5 ± 0.74		7	10–20 fold
